Measured values reported in patent US20240091372A1, “ANTI-DOPPEL ANTIBODY DRUG CONJUGATES” (SEOUL NATIONAL UNIVERSITY R&DB FOUNDATION, priority 2022, published 2024).
No end group written: not given here. *: point of attachment. MMAE = monomethyl auristatin E, CC[C@H](C)[C@@H]([C@@H](CC(=O)N1CCC[C@H]1[C@H](OC)[C@@H](C)C(=O)N[C@H](C)[C@@H](O)c1ccccc1)OC)N(C)C(=O)[C@@H](NC(=O)[C@H](C(C)C)N(C)*)C(C)C; p‑aminobenzylcarbamate = NC(=O)OCc1ccc(N*)cc1

B1: 3H9-KGDEVD-MMAE (name=SEQ ID NO:65; structure=SEQ ID NO:66) (antibody, human IgG1, kappa, V domains shown)
VH: EVQLVESGGGLVQPGGSLRLSCAASGFTFSSYAMSWVRQAPGKGLEWVSGISGSGSRTDYADSVKGRFTISRDNSKNTLYLQMNSLRAEDTAVYYCAKVYTYTRGFAFDLWGQGTLVTVSS
VL: DIQMTQSPSSLSASVGDRVTITCRASQSISNYLNWYQQKPGKAPKLLIYAASTLQSGVPSRFSGSGSGTDFTLTISSLQPEDFATYYCQQSYSFPYTFGQGTKVEIKR
modifications: maleimide-KGDEVD-MMAE (SEQ ID NO:77) linker-payload on reduced Cys residues of the partially reduced mAb; positions and chain not stated
B2: 3H9-vc-MMAE (antibody, human IgG1, kappa, V domains shown)
VH: EVQLVESGGGLVQPGGSLRLSCAASGFTFSSYAMSWVRQAPGKGLEWVSGISGSGSRTDYADSVKGRFTISRDNSKNTLYLQMNSLRAEDTAVYYCAKVYTYTRGFAFDLWGQGTLVTVSS
VL: DIQMTQSPSSLSASVGDRVTITCRASQSISNYLNWYQQKPGKAPKLLIYAASTLQSGVPSRFSGSGSGTDFTLTISSLQPEDFATYYCQQSYSFPYTFGQGTKVEIKR
modifications: mc-Val-Cit-PABA-MMAE linker-payload on reduced Cys residues of the partially reduced mAb; positions and chain not stated

Tests used:
[1] = tested on: HCT116 xenograft tumor; assay: In vivo efficacy in HCT116 xenograft tumor model; parameters: species or system balb-c/nu mice; settings: for tumor growth suppression (KGDEVD-MMAE ADCs): same tumor model, FIG. 7
Method: To assess the anti-tumor efficacy of anti-doppel ADCs, an HCT116 xenograft tumor model was used. HCT116 cells (1×10^^7 cells/mouse) were inoculated into the left flank of balb-c/nu mice. When the average tumor volume reach 70-100 mm^3, ADC was administered intravenously every 4 days for a total of 4 times. Tumor volume was measured every 4 days until the end of the experiments.

[2] = target: doppel (human, UniProt Q9UKY0 26-152); assay: cell-based or functional assay
Sequence of doppel (Q9UKY0 26-152): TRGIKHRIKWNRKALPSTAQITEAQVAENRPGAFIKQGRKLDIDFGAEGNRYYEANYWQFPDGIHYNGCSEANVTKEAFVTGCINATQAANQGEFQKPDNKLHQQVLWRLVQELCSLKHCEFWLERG

Row | Molecule | tumor growth suppression (KGDEVD-MMAE ADCs) [1] | IC50 (nM), cytotoxicity on HCT116 cells, viability after 72 hours [2] [nM] | also measured
1 | 3D5-KGDEVD-MMAE: ADC prepared as 3H9-KGDEVD-MMAE using anti-doppel mAb 3D5 (maleimide-KGDEVD-{p‑aminobenzylcarbamate-MMAE}; also: conjugated to mAb 3D5 through maleimide) | effectively suppressed tumor growth | – | –
2 | 3H9-DEVD-MMAE: ADC prepared as 3H9-KGDEVD-MMAE except using maleimide-DEVD-MMAE (DEVD-{p‑aminobenzylcarbamate-MMAE}; not fully specified (N-terminus); also: conjugated to mAb 3H9 through maleimide) | – | – | tumor growth suppression, ADCs with different linkers ([1]; HCT116 xenograft, FIG. 6): effectively suppressed tumor growth
3 | 4D1-KGDEVD-MMAE: ADC prepared as 3H9-KGDEVD-MMAE using anti-doppel mAb 4D1 (maleimide-KGDEVD-{p‑aminobenzylcarbamate-MMAE}; also: conjugated to mAb 4D1 through maleimide) | effectively suppressed tumor growth | – | –
4 | B1 | – | 39.3 | –
5 | B2 | – | 28.6 | –
